# According to PubChem BioAssay AID330 (DTP/NCI, 2004):
# Where “and” joins values, the source holds several entries; their conditions need not be identical. Equal entries are not always repeated. Toxic doses and inconclusive results are not listed.
# System: P388 leukemia ip, CD2F1 mice, survival T/C
# Test: NCI In Vivo Anticancer Drug Screen. Data for tumor model P388 Leukemia (intraperitoneal) in CD2F1 (CDF1) mice
# Conditions: endpoint: median survival time, higher = longer survival
# Method in brief: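 Mice carrying the transplanted tumor received test compound or vehicle. Survival was recorded in each group, and the value is the treated-group measurement divided by that of the vehicle-treated control group.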
# [1] = dose: 100.0 mg/kg/injection, schedule: Q01DX009 (ip), vehicle: saline with Tween-80
# [2] = dose: 200.0 mg/kg/injection, schedule: Q01DX009 (ip), vehicle: saline with Tween-80
# [3] = dose: 400.0 mg/kg/injection, schedule: Q01DX009 (ip), vehicle: saline with Tween-80
# [4] = dose: 50.0 mg/kg/injection, schedule: Q01DX009 (ip), vehicle: Klucel (hydroxypropylcellulose) (HPC)
# [5] = dose: 100.0 mg/kg/injection, schedule: Q01DX009 (ip), vehicle: Klucel (hydroxypropylcellulose) (HPC)
# [6] = dose: 60.0 mg/kg/injection, schedule: Q01DX005 (ip), vehicle: Klucel (hydroxypropylcellulose) (HPC)
# [7] = dose: 120.0 mg/kg/injection, schedule: Q01DX005 (ip), vehicle: Klucel (hydroxypropylcellulose) (HPC)
# [8] = dose: 50.0 mg/kg/injection, schedule: Q01DX009 (ip), vehicle: saline with Tween-80
# [9] = dose: 100.0 mg/kg/injection, schedule: Q04DX002 (ip), vehicle: saline with Tween-80
# [10] = dose: 200.0 mg/kg/injection, schedule: Q04DX002 (ip), vehicle: saline with Tween-80
# [11] = dose: 400.0 mg/kg/injection, schedule: Q04DX002 (ip), vehicle: saline with Tween-80
# [12] = dose: 50.0 mg/kg/injection, schedule: Q04DX002 (ip), vehicle: saline with Tween-80
# [13] = dose: 12.5 mg/kg/injection, schedule: Q01DX005 (ip), vehicle: saline
# [14] = dose: 25.0 mg/kg/injection, schedule: Q01DX005 (ip), vehicle: saline
# [15] = dose: 25.0 mg/kg/injection, schedule: Q04DX002 (ip), vehicle: saline with Tween-80
# [16] = dose: 100.0 mg/kg/injection, schedule: Q04DX002 (ip), vehicle: Klucel (hydroxypropylcellulose) (HPC)
# [17] = dose: 12.5 mg/kg/injection, schedule: Q01DX009 (ip), vehicle: saline with Tween-80
smiles,measurement,setting,value
O=c1cccc(Cl)[nH]1,T/C,[1],100 % of control
same,T/C,[2],95 % of control
same,T/C,[3],100 % of control
CC1(C)C=C(C(=O)ON2C(=O)CCC2=O)C(C)(C)N1O,T/C,[4],113 % of control
same,T/C,[5],106 % of control
[N-]=[N+]=C(S(=O)(=O)O)S(=O)(=O)O,T/C,"dose: 50.0 mg/kg/injection, schedule: Q01DX009 (ip), vehicle: saline",107 % of control
same,T/C,"dose: 100.0 mg/kg/injection, schedule: Q01DX009 (ip), vehicle: saline",112 % of control
same,T/C,"dose: 200.0 mg/kg/injection, schedule: Q01DX009 (ip), vehicle: saline",107 % of control
same,T/C,"dose: 400.0 mg/kg/injection, schedule: Q01DX009 (ip), vehicle: saline",107 % of control
Nc1nc(SCC(=O)O)[nH]c(=O)c1NS(=O)(=O)c1ccccc1,T/C,[6],108 % of control
same,T/C,[7],109 % of control
Cn1c(=O)[nH]c(=O)c2nc(-c3ccc(Cl)c(Cl)c3)cnc21,T/C,[8],104 % of control
same,T/C,[1],101 % of control
same,T/C,[2],99 % of control
CC(C)(O)c1ccccc1[S+]1OC(C)(C)c2ccccc21 (centres undefined),T/C,[9],109 % of control
same,T/C,[10],112 % of control
same,T/C,[11],109 % of control
N#CCCNNc1ccccc1,T/C,"dose: 50.0 mg/kg/injection, schedule: Q01DX001 (ip), vehicle: saline",100 % of control
same,T/C,"dose: 100.0 mg/kg/injection, schedule: Q01DX001 (ip), vehicle: saline",106 % of control
same,T/C,"dose: 200.0 mg/kg/injection, schedule: Q01DX001 (ip), vehicle: saline",97 % of control
OC(C(=S)N1CCOCC1)(c1ccccc1)c1ccccc1,T/C,[4],105 % of control
same,T/C,[5],103 % of control
same,T/C,"dose: 200.0 mg/kg/injection, schedule: Q01DX009 (ip), vehicle: Klucel (hydroxypropylcellulose) (HPC)",98 % of control
C=CC1CC[N-]CC1.C=CC1CC[N-]CC1.C=CC1CC[N-]CC1.[Cl][Cr]([Cl])[Cl],T/C,"dose: 12.5 mg/kg/injection, schedule: Q04DX003 (ip), vehicle: saline with Tween-80",100 % of control
same,T/C,"dose: 25.0 mg/kg/injection, schedule: Q04DX003 (ip), vehicle: saline with Tween-80",100 % of control
same,T/C,"dose: 50.0 mg/kg/injection, schedule: Q04DX003 (ip), vehicle: saline with Tween-80",100 % of control
O=c1[nH]c(=O)n(C2OC(CO)C(O)C2O)cc1CC(F)(F)C(F)(F)F (centres undefined),T/C,"dose: 50.0 mg/kg/injection, schedule: Q01DX001 (ip), vehicle: saline with Tween-80",107 % of control
same,T/C,"dose: 100.0 mg/kg/injection, schedule: Q01DX001 (ip), vehicle: saline with Tween-80",106 % of control
same,T/C,"dose: 200.0 mg/kg/injection, schedule: Q01DX001 (ip), vehicle: saline with Tween-80",100 % of control
same,T/C,"dose: 400.0 mg/kg/injection, schedule: Q01DX001 (ip), vehicle: saline with Tween-80",101 % of control
COc1cc2ccc3c[n+]4ccccc4cc3c2cc1OC,T/C,"dose: 6.25 mg/kg/injection, schedule: Q01DX009 (ip), vehicle: Klucel (hydroxypropylcellulose) (HPC)",103 % of control
same,T/C,"dose: 12.5 mg/kg/injection, schedule: Q01DX009 (ip), vehicle: Klucel (hydroxypropylcellulose) (HPC)",108 % of control
Clc1cccc(Cl)c1C(Nc1nncs1)Nc1nncs1,T/C,[12],124 % of control
same,T/C,[10],162 % of control and 174 % of control
same,T/C,[11],186 % of control and 192 % of control
CCCCN(CCCC)CCOc1ccc(/C(CC)=C(/CC)c2ccc(OCCN(CCCC)CCCC)cc2)cc1,T/C,[13],100 % of control
same,T/C,[14],87 % of control
same,T/C,"dose: 50.0 mg/kg/injection, schedule: Q01DX005 (ip), vehicle: saline",100 % of control and 102 % of control
Cn1c(=O)sc2ccccc21,T/C,[15],102 % of control
same,T/C,[12],104 % of control
same,T/C,[9],110 % of control
N#CSCc1cc(Cl)c(Cl)cc1Cl,T/C,[15],106 % of control
same,T/C,[12],106 % of control
same,T/C,[16],107 % of control
same,T/C,[9],100 % of control
CCOC(=C\C(=O)NC)/C=C/c1ccc([N+](=O)[O-])cc1,T/C,"dose: 6.25 mg/kg/injection, schedule: Q01DX005 (ip), vehicle: Klucel (hydroxypropylcellulose) (HPC)",117 % of control
same,T/C,"dose: 12.5 mg/kg/injection, schedule: Q01DX005 (ip), vehicle: Klucel (hydroxypropylcellulose) (HPC)",91 % of control
same,T/C,"dose: 25.0 mg/kg/injection, schedule: Q01DX005 (ip), vehicle: Klucel (hydroxypropylcellulose) (HPC)",91 % of control
same,T/C,"dose: 50.0 mg/kg/injection, schedule: Q01DX005 (ip), vehicle: Klucel (hydroxypropylcellulose) (HPC)",86 % of control
same,T/C,"dose: 100.0 mg/kg/injection, schedule: Q01DX005 (ip), vehicle: Klucel (hydroxypropylcellulose) (HPC)",88 % of control
N=C(Oc1ccccc1[N+](=O)[O-])c1ccccc1,T/C,[8],90 % of control and 94 % of control
same,T/C,[1],100 % of control and 95 % of control
same,T/C,[2],102 % of control and 93 % of control
same,T/C,[3],88 % of control
O=C1OC(c2ccc(Cl)cc2)=N/C1=C\c1ccccc1,T/C,[8],120 % of control
same,T/C,[1],90 % of control
same,T/C,[2],100 % of control
COc1ccc(C2CC(C)(O)Oc3cc4c(cc32)OCO4)cc1 (centres undefined),T/C,[6],97 % of control
same,T/C,[7],89 % of control
Cc1ccc(S(=O)(=O)O/N=C(/CC/C(=N\OS(=O)(=O)c2ccc(C)cc2)c2ccccc2)c2ccccc2)cc1,T/C,[9],95 % of control
same,T/C,[10],115 % of control
same,T/C,[11],96 % of control
C=C(C(=O)OC)C1C=CCC1 (centres undefined),T/C,"dose: 12.5 mg/kg/injection, schedule: Q01DX009 (ip), vehicle: distilled water + Tween-80",100 % of control
same,T/C,"dose: 25.0 mg/kg/injection, schedule: Q01DX009 (ip), vehicle: distilled water + Tween-80",100 % of control
same,T/C,"dose: 50.0 mg/kg/injection, schedule: Q01DX009 (ip), vehicle: distilled water + Tween-80",111 % of control
same,T/C,"dose: 100.0 mg/kg/injection, schedule: Q01DX009 (ip), vehicle: distilled water + Tween-80",101 % of control
same,T/C,"dose: 200.0 mg/kg/injection, schedule: Q01DX009 (ip), vehicle: distilled water + Tween-80",86 % of control
CCC1=CC(C(O)CC(C)C)C(C)(Cc2ccc(CC)cn2)NC1c1ccccc1 (centres undefined),T/C,[9],96 % of control
O=[n+]1c2c(n([O-])c3cc(Cl)c(Cl)cc31)CCCC2,T/C,[17],87 % of control
same,T/C,"dose: 25.0 mg/kg/injection, schedule: Q01DX009 (ip), vehicle: saline with Tween-80",89 % of control
same,T/C,[8],98 % of control and 86 % of control
CCCCCCCCCCCCCCCCNCC(O)CN (centres undefined),T/C,"dose: 3.13 mg/kg/injection, schedule: Q01DX009 (ip), vehicle: saline with Tween-80",102 % of control
same,T/C,"dose: 6.25 mg/kg/injection, schedule: Q01DX009 (ip), vehicle: saline with Tween-80",96 % of control
same,T/C,[17],88 % of control
c1ccc2c3c(ccc2c1)OP1(=NP(N2CC2)(N2CC2)=NP(N2CC2)(N2CC2)=N1)Oc1ccc2ccccc2c1-3,T/C,[16],101 % of control and 117 % of control
same,T/C,"dose: 200.0 mg/kg/injection, schedule: Q04DX002 (ip), vehicle: Klucel (hydroxypropylcellulose) (HPC)",100 % of control
same,T/C,"dose: 400.0 mg/kg/injection, schedule: Q04DX002 (ip), vehicle: Klucel (hydroxypropylcellulose) (HPC)",108 % of control
same,T/C,"dose: 800.0 mg/kg/injection, schedule: Q04DX002 (ip), vehicle: Klucel (hydroxypropylcellulose) (HPC)",102 % of control
O=NNc1ccncc1,T/C,"dose: 6.25 mg/kg/injection, schedule: Q01DX005 (ip), vehicle: saline",109 % of control
same,T/C,[13],122 % of control
same,T/C,[14],120 % of control
O=CCCOC1CCCCO1 (centres undefined),T/C,"dose: 50.0 mg/kg/injection, schedule: Q01DX009 (ip), vehicle: other",116 % of control
same,T/C,"dose: 100.0 mg/kg/injection, schedule: Q01DX009 (ip), vehicle: other",110 % of control
same,T/C,"dose: 200.0 mg/kg/injection, schedule: Q01DX009 (ip), vehicle: other",104 % of control
O=S(=O)(C1CC1c1ccccc1)C1CC1c1ccc(F)cc1 (centres undefined),T/C,"dose: 50.0 mg/kg/injection, schedule: Q01DX005 (ip), vehicle: saline with Tween-80",100 % of control
same,T/C,"dose: 100.0 mg/kg/injection, schedule: Q01DX005 (ip), vehicle: saline with Tween-80",95 % of control
same,T/C,"dose: 200.0 mg/kg/injection, schedule: Q01DX005 (ip), vehicle: saline with Tween-80",101 % of control
CCN(CC)CCNC(=O)c1ccc(NCN2C(=O)NC(c3ccccc3)(c3ccccc3)C2=O)cc1,T/C,"dose: 60.0 mg/kg/injection, schedule: Q01DX005 (ip), vehicle: saline with Tween-80",104 % of control
same,T/C,"dose: 120.0 mg/kg/injection, schedule: Q01DX005 (ip), vehicle: saline with Tween-80",110 % of control
